Test results taken from patent US12637427B2, “ALDH-2 inhibitor compounds and methods of use” (Amygdala Neurosciences, Inc., priority 2022, dated 2026).

Legend:
recombinant human ALDH-2 = biological target: T1, recombinant human ALDH-2 (Homo sapiens, UniProt P05091); experiment: ALDH-2 inhibition assay; type: biochemical; conditions: 60 min pre-incubation; 10 μM = highest concentration tested; read-out: Enzymatic Assays IC50 ALDH2
T1 sequence (P05091 18-517): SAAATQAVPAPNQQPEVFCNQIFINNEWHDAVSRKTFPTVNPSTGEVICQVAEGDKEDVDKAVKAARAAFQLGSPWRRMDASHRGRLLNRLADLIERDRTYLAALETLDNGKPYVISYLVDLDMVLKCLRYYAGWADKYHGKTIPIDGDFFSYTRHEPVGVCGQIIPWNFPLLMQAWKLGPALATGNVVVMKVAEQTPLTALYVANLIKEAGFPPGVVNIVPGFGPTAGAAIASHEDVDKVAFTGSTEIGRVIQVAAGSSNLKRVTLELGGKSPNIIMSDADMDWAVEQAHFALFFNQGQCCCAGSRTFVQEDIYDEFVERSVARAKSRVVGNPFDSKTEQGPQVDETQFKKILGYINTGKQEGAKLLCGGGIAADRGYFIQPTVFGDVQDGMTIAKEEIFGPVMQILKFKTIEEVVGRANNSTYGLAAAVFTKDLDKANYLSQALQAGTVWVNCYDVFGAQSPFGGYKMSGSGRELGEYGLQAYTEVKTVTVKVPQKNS
Experimental: A. ALDH-2 inhibition assay: The ALDH-2 reaction mixture used in the assay contained 125 μM formaldehyde, 75 μM NAD+, 20 mM NaCl, 10 mM MgCl2, and 20 nM recombinant human ALDH-2 in 50 mM Hepes buffer, pH 7.5 in a final volume of 10 μL using 384-well Corning 3820 plates. After 60 min of pre-incubation of the test ALDH-2 inhibitor compound with ALDH-2, the reaction was started by adding NAD+ and formaldehyde and the assay reaction mixture was allowed to proceed for 60 minutes. Activity of the ALDH-2 enzyme was determined by monitoring NADH formation using Perkin-Elmer Envision Reader with excitation and emission wavelengths set at 340 and 460 nm, respectively.

MAO-A = biological target: T2, MAO-A (Homo sapiens, UniProt P21397); experiment: MAO-A inhibition assay; type: biochemical; conditions: 20 min pre-incubation; 10 μM = highest concentration tested; read-out: Enzymatic Assays IC50 MAO-A
T2 sequence (P21397 1-527): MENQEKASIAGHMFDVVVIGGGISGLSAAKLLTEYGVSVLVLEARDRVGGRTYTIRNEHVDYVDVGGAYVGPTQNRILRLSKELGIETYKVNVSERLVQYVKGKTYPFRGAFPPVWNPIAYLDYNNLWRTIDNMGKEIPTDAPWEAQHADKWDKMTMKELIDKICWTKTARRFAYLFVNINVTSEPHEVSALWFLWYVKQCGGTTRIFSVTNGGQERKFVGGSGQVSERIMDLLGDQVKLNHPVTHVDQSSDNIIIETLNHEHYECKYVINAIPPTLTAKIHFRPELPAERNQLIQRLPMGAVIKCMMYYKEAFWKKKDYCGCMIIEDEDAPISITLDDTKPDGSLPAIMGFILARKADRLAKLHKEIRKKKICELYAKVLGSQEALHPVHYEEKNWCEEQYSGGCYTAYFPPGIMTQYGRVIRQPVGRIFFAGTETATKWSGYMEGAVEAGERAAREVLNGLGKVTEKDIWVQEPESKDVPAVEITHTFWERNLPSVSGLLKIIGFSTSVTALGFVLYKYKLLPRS
Experimental: (§1) D. MAO-A and MAO-B inhibition assays: MAO assays included luminogenic MAO substrate, reaction buffers, Luciferin Detection, and a reconstitution buffer with esterase. The MAO reaction mixture used in the assay included microsome contained MAO-A (2 μg) or MAO-B (10 μg), 160 μM substrate for MAO-A or 16 μM substrate for MAO-B, MAO-A buffer (100 mM Hepes buffer, pH 7.5, 5% glycerol) or MAO-B buffer (100 mM Hepes, pH 7.5, 5% glycerol, 10% dimethyl sulfoxide) in a final volume of 30 μL. After 20 minutes of pre-incubation of the MAO-A or MAO-B enzyme with the test ALDH-2 inhibitor compound, the reaction was initiated by adding enzyme substrate and the […] reaction was allowed to proceed for 60 minutes. Reconstituted Luciferin Detection Reagent (30 μL) was then added is added to simultaneously stop the MAO reaction and convert the methyl ester derivative to luciferin and produce light. The amount of light produced is directly proportional to the activity of MAO. The mixtures were further incubated for 20 minutes and activity of the enzyme was determined using Perkin-Elmer Envision Reader.

MAO-B = biological target: T3, MAO-B (Homo sapiens, UniProt P27338); experiment: MAO-B inhibition assay; type: biochemical; conditions: 20 min pre-incubation; 10 μM = highest concentration tested; read-out: Enzymatic Assays IC50 MAO-B
T3 sequence (P27338 1-520): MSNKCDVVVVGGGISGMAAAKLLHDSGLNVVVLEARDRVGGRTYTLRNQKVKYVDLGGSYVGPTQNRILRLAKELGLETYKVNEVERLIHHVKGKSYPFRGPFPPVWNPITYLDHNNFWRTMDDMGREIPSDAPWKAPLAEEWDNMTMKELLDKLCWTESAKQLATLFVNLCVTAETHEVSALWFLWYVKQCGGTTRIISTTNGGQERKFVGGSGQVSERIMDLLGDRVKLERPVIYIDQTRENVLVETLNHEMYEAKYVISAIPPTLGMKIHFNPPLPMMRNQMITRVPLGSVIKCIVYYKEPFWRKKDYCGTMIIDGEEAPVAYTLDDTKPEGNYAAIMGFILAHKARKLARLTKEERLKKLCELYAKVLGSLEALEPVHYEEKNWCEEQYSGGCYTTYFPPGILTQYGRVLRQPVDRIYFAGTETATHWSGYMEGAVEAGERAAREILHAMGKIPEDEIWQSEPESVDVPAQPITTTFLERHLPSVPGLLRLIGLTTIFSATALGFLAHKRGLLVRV
Experimental: as §1

HepaRG spheroids = experiment: HepaRG 3D spheroid assay; type: cell-based; conditions: for Ratio MEC to ALDH2: HepaRG spheroid MEC divided by ALDH-2 IC50; for HepaRG 3D Spheroid MEC: minimum effective concentration crossing vehicle control threshold of cell health marker, 100 μM = highest concentration tested
Description: See e.g., Walker et al., “The evolution of strategies to minimise the risk of human drug-induced liver injury (DILI) in drug discovery and development,” (2020) Archives of Toxicology, Vol. 94: 2559-2585, which is hereby incorporated by reference herein in its entirety. […] In applying the HepaRG spheroid assay analysis to determining the hepatoxic liability of ALDH-2 inhibitor compounds, consideration is made of the binding to plasma protein and the limitations to CNS penetration due to the blood-brain barrier.
E. HepaRG® 3D spheroid assay: The HepaRG 3D spheroid assay is described in Walker et al., “The evolution of strategies to minimise the risk of human drug-induced liver injury (DILI) in drug discovery and development,” (2020) Archives of Toxicology, Vol. 94: 2559-2585. Briefly, HepaRG® cells were seeded into ultra-low adhesion 96-well black walled clear bottomed spheroid microplates. […] At the end of the incubation period, the spheroids were loaded with the relevant dye/antibody for each cell health marker (spheroid count, spheroid size, DNA structure, mitochondrial mass, mitochondrial membrane potential, oxidative stress, glutathione content, and cellular ATP). The plates were then scanned using an automated fluorescent cellular imager, ArrayScan® (Thermo Scientific Cellomics).

| SMILES | IC50 (recombinant human ALDH-2) | IC50 (MAO-A) | IC50 (MAO-B) | Ratio MEC to ALDH2 (HepaRG spheroids) | HepaRG 3D Spheroid MEC (HepaRG spheroids) |
| --- | --- | --- | --- | --- | --- |
| O=C(NCc1ccc(-c2cccc(=O)[nH]2)cc1)c1ccccc1Cl [(1b), 2-Chloro-N-(4-(6-oxo-1,6-dihydropyridin-2-yl)benzyl)benzamide] | 0.137 µM | > 10 µM | > 10 µM | >730 | No Effect |
| O=C(NCc1ccc(-c2cccc(=O)[nH]2)nc1)c1ccccc1Cl [(1l), 2-chloro-N-((6′-oxo-1′,6′-dihydro-[2,2′-bipyridin]-5-yl)methyl)benzamide] | 0.118 µM | > 10 µM | > 10 µM | 50 | 5.95 µM |
| Cc1nccc(Cl)c1C(=O)NCc1ccc(-c2cccc(=O)[nH]2)cc1 [(1c), 4-Chloro-2-methyl-N-(4-(6-oxo-1,6-dihydropyridin-2-yl)benzyl)nicotinamide] | 0.128 µM | > 10 µM | > 10 µM | 90 | 11.5 µM |
| Cc1cccc(Cl)c1C(=O)NCc1ccc(-c2cccc(=O)[nH]2)cc1 [(1a), 2-Chloro-6-methyl-N-(4-(6-oxo-1,6-dihydropyridin-2-yl)benzyl)benzamide] | 0.078 µM | > 10 µM | > 10 µM | 133 | 10.4 µM |

The next molecules have a lower IC50 (recombinant human ALDH-2) than those just listed; values first:

| IC50 (recombinant human ALDH-2) | IC50 (MAO-A) | IC50 (MAO-B) | Ratio MEC to ALDH2 (HepaRG spheroids) | HepaRG 3D Spheroid MEC (HepaRG spheroids) | SMILES |
| --- | --- | --- | --- | --- | --- |
| 0.028 µM | > 10 µM | > 10 µM | 1668 | 46.7 µM | Cc1nccc(Br)c1C(=O)NCc1ccc(-c2[nH]c(=O)ccc2F)cc1 [(1g), 4-Bromo-N-(4-(3-fluoro-6-oxo-1,6-dihydropyridin-2-yl)benzyl)-2-methylnicotinamide] |
| 0.01 µM | > 10 µM | > 10 µM | 2100 | 21.0 µM | Cc1cccc(Cl)c1C(=O)NCc1ccc(-c2cccc(=O)[nH]2)nc1 [(1k), 2-Chloro-6-methyl-N-((6′-oxo-1′,6′-dihydro-[2,2′-bipyridin]-5-yl)methyl)benzamide] |
